Assays:
human HDAC-1 = human HDAC-1 (Homo sapiens, UniProt Q13547); assay: Inhibition of histone deacetylase enzymatic (HDAC-1) activity; type: biochemical; details: Table 6C
Method: The following protocol was used to assay the compounds of the invention.
The mixture was pre-incubated for 5 minutes at room temperature. The reaction was started by bringing the temperature to 37° C. and adding 16 μl substrate.

[1] = test system: p21^WAF1/Cip1 tumor suppressor gene; assay: p21WAF1/Cip1 assay (p21 promoter-driven luciferase reporter); type: cell-based, human; details: HCT116 cells with p21 promoter-driven luciferase, 16 hours; compared with MS-275
Method: (§1) Table 6C provides data on inhibition of HDAC1 enzyme, on antiproliferative activities (HCT116 human colon cancer cells) of the compounds using 3-[4,5-dimethylthiazol-2-yl-2,5-diphenyltetrazolium]bromide (MTT) assay, as well as induction of p21^WAF1/Cip1 tumor suppressor gene.
HCT116 cells were stably transfected with reporter plasmids encoding the p21 promoter-driven luciferase. Cells were treated with indicated concentration of HDAC inhibitors for 16 hours before cells were harvested and luciferase activity analyzed. The effective concentration (EC) of MS-275 was designated as 1 uM. The ability of HDAC inhibitor was compared with that of MS-275 (T. Suzuki, et. al J. Med. Chem., 1999, 3001-3003).

[2] = test system: HCT116 human colon cancer cells; assay: MTT assay, antiproliferative activity; type: cell-based; details: HCT-116, 72 hours
Method: as §1
Compounds at various concentrations were added to human colon cancer HCT116 cells plated in 96-well plates. Cells were incubated for 72 hours at 37° C. in 5% CO2 incubator. MTT (3-[4,5-dimethylthiazol-2-yl]-2,5 diphenyl tetrazolium bromide, Sigma) was added at a final concentration of 0.5 mg/ml and incubated with the cells for 4 hours before an equal volume of solubilization buffer (50% N,N-dimethylformamide, 20% SDS, pH 4.7) was added onto cultured cells. After overnight incubation, solubilized dye was quantified by colorimetric reading at […] using a reference at 630 nM. OD values were converted to cell numbers according to a standard growth curve of the relevant cell line. The concentration which reduces cell numbers to 50% of those of DMSO-treated cells is determined as MTT IC50,

[3] = test system: HCT116 human colorectal carcinoma cells; assay: Antineoplastic effects on human tumor xenografts in vivo, HCT116; details: hct116 xenograft in mice, daily injection
Method: (§2) Eight to ten week old female BCDI mice (Taconic Labs, Great Barrington, N.Y.) were injected subcutaneously in the flank area with 2×10^6 preconditioned HCTI 16 human colorectal carcinoma cells, A549 human lung cancer, SW48 human colorectal cancer, A431 vulval caracinoma and colo205 human colorectal cancer. Preconditioning of these cells was done by a minimum of three consecutive tumor transplantations in the same strain of nude mice. Subsequently, tumor fragments of approximately 30 mgs were excised and implanted subcutaneously in mice, in the left flank area, under Forene anesthesia (Abbott Labs, Geneva, Switzerland). When the tumors reached a mean volume of 100 mm^3, the mice were treated intravenously, subcutaneously, or intraperitoneally by daily injection, with a solution of the histone deacetylase inhibitor in an appropriate vehicle, such as PBS, DMSO/water, or Tween 80/water, at a starting dose of 10 mg/kg. The optimal dose of the HDAC inhibitor was established by dose response experiments according to standard protocols. Tumor volume was calculated every second day post infusion according to standard methods (e.g., Meyer et al., Int. J. Cancer 43: 851-856 (1989)).

A431 vulval carcinoma = assay: Antineoplastic effects on human tumor xenografts in vivo, A431; details: A431 xenograft in mice, daily injection
Method: as §2

A549 human lung cancer = assay: Antineoplastic effects on human tumor xenografts in vivo, A549; details: A549 xenograft in mice, daily injection
Method: as §2

human HDAC-1, sequence (Q13547 whole entry): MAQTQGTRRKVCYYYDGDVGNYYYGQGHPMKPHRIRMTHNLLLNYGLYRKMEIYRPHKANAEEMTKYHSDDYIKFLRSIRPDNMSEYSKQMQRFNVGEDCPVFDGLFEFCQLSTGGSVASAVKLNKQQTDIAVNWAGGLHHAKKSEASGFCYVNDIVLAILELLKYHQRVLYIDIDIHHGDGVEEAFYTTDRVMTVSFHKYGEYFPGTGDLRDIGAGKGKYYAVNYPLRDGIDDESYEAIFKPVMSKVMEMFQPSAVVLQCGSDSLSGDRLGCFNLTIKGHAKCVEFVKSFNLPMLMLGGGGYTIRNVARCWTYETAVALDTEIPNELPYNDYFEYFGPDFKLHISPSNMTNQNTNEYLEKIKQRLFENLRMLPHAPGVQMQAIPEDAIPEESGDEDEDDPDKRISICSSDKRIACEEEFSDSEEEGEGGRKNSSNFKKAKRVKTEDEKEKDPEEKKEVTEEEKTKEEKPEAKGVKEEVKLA

Compound | IC50 (human HDAC-1) [µM] | IC50 [2] [µM] | P21 (HCT116) μM, effective concentration (EC) for induction of p21 [1] | antineoplastic effects [3] | antineoplastic effects (A431 vulval carcinoma) | antineoplastic effects (A549 human lung cancer)
Cc1cc(C)nc(N(C)c2ccc(C(=O)Nc3cc(-c4cccs4)ccc3N)cc2)n1 [258hh, N-(2-amino-5-(thiophen-2-yl)phenyl)-4-((4,6-dimethylpyrimidin-2-yl)(methyl)amino)benzamide] | < 1 | < 1 | b (1≦b≦20) |  |  | 
Nc1ccc(-c2cccs2)cc1NC(=O)c1ccc(OC(=O)c2ccc(O)cc2)cc1 [258mm, 4-((2-amino-5-(thiophen-2-yl)phenyl)carbamoyl)phenyl 4-hydroxybenzoate] | < 1 | < 1 | b (1≦b≦20) |  |  | 
Nc1ccc(-c2cccs2)cc1NC(=O)c1ccsc1 [258nn, N-(2-amino-5-(thiophen-2-yl)phenyl)thiophene-3-carboxamide] | < 1 | 1 to 20 | b (1≦b≦20) |  |  | 
Cc1nc2ccc(C(=O)Nc3cc(-c4cccs4)ccc3N)cc2o1 [286aa, N-(2-amino-5-(thiophen-2-yl)phenyl)-2-methylbenzo[d]oxazole-6-carboxamide] | < 1 | < 1 | b (1≦b≦20) |  |  | 
Nc1ccc(-c2cccs2)cc1NC(=O)c1ccc(Cn2c(=O)[nH]c3ccccc3c2=O)cc1 [compound 349] | < 1 | < 1 | b (1≦b≦20) |  |  | 

Continued, in another order:

IC50 (human HDAC-1) [µM] | IC50 [2] [µM] | Compound | P21 (HCT116) μM, effective concentration (EC) for induction of p21 [1] | antineoplastic effects [3] | antineoplastic effects (A431 vulval carcinoma) | antineoplastic effects (A549 human lung cancer)
< 1 | < 1 | CN(C)CCOC(=O)Nc1ccc(C(=O)Nc2cc(-c3cccs3)ccc2N)cc1 [164cc, 2-(dimethylamino)ethyl 4-((2-amino-5-(thiophen-2-yl)phenyl)carbamoyl)phenylcarbamate] | b (1≦b≦20) |  |  | 
 | < 1 | CC(=O)Nc1ccc(C(=O)Nc2cc(-c3cccs3)ccc2N)cc1 [258aa, 4-acetamido-N-(2-amino-5-(thiophen-2-yl)phenyl)benzamide] | b (1≦b≦20) | antineoplastic effects | antineoplastic effects | antineoplastic effects
< 1 | < 1 | Nc1ccc(-c2cccs2)cc1NC(=O)c1ccc2ncccc2c1 [258cc, N-(2-amino-5-(thiophen-2-yl)phenyl)quinoline-6-carboxamide] | b (1≦b≦20) |  |  | 
< 1 | < 1 | Nc1ccc(-c2cccs2)cc1NC(=O)c1ccc(O)cc1 [258pp, N-(2-amino-5-(thiophen-2-yl)phenyl)-4-hydroxybenzamide] | b (1≦b≦20) |  |  | 
< 1 | < 1 | COc1ccc(C(=O)Nc2cc(-c3cccs3)ccc2N)cc1 [258qq, N-(2-amino-5-(thiophen-2-yl)phenyl)-4-methoxybenzamide] | b (1≦b≦20) |  |  | 
